Structures can show the parent of a compound that is named as a salt. Where two headings read alike, the source gives them in different places.
Key:
[1] = tested on: SARS-CoV-2-ΔOrf7a-NLuc virus; assay: microbe, parasite or virus in culture; type: cell-based; details: for activity at 10 µM: Severe acute respiratory syndrome coronavirus 2, Vero, 72 h, read-out: Mean relative luminescence (n=4)
[2] = tested on: SARS-CoV-2-ΔOrf7a-NLuc virus; assay: microbe, parasite or virus in culture; type: cell-based
[3] = tested on: recombinant NLuc; type: biochemical
[4] = tested on: Vero cells
[5] = tested on: HUH7 cells
[6] = Vero screen, […], relative luminescence
[7] = […], 1 = untreated, 0 = total inhibition
[8] = HUH7 screen, […], relative luminescence
[9] = recombinant NLuc activity relative to DMSO
[10] = recombinant NLuc, first read column
[11] = recombinant NLuc, fourth read column
[12] = recombinant NLuc, third read column
[13] = Vero cells, 10 μM, 1 = DMSO-treated infected cells

Compound | % activity in Vero 100PFU screen [1] [%] | Mean relative luminescence (n=4) [1, 6] | Mean relative luminescence (n=4) [1, 7] | Mean relative luminescence (n=4) [2, 8] | Relative Recombinant NLUC [3, 9] | Reads Counts per second (read 1) [3, 10] [Counts per second] | Reads Counts per second (read 4) [3, 11] [Counts per second] | Reads Counts per second (read 3) [3, 12] [Counts per second] | PrestoBlue relative viability [4, 13] | PrestoBlue relative viability ([4]; Vero screen) | PrestoBlue relative viability ([5]; HUH7 screen) | activity at 10 µM [1, 7] [%] | activity at 10 µM [1] [%] | Mean relative luminescence (n=4) [2] | Reads Counts per second (read 1) [3] [Counts per second] | Reads Counts per second (read 3) [3] [Counts per second] | Reads Counts per second (read 4) [3] [Counts per second] | Relative Recombinant NLUC [3] | PrestoBlue relative viability ([4]; African green monkey) | PrestoBlue relative viability ([5]; human)
Cc1cc(C2CCCCC2)n(O)c(=O)c1.NCCO [Ciclopirox ethanolamine] | 7 | 0.05436 | 0.05436 | 0.04601 | 0.961 | 358391 | 361119 | 365653 | 0.5173 | 0.5173 | 0.5023 |  |  |  |  |  |  |  |  | 
COCCOC(=O)C1=C(C)NC(C)=C(C(=O)OC/C=C/c2ccccc2)C1c1cccc([N+](=O)[O-])c1 (stereo not shown) [Cilnidipine] | 0.696 | 0.0003902 |  | 0.00182 | 0.07521 | 28828 | 27971 | 28106 | 0.8017 | 0.8017 | 0.797 | 0.039 |  |  |  |  |  |  |  | 
COc1cccc2c1C(=O)c1c(O)c3c(c(O)c1C2=O)C[C@@](O)(C(C)=O)C[C@@H]3O[C@H]1C[C@H](N)[C@H](O)[C@H](C)O1 [Daunorubicin HCl] | 5 | 0.02101 |  | 0.006058 | 0.8615 | 319222 | 328432 | 327409 | 0.6965 | 0.6965 | 0.5186 | 2.1 |  |  |  |  |  |  |  | 
CCc1cnn2c(NCc3ccc[n+]([O-])c3)cc(N3CCCC[C@H]3CCO)nc12 [Dinaciclib (SCH727965), Dinaciclib] | 5 | 0.03292 |  | 0.06294 | 0.9134 | 345056 | 346073 | 342151 | 0.664 | 0.664 | 0.5934 | 3.29 |  |  |  |  |  |  |  | 
CNCC[C@H](Oc1cccc2ccccc12)c1cccs1 [Duloxetine HCl] | 12 |  |  |  |  |  |  |  |  |  |  |  | 9.8 | 0.02845 | 297459 | 293652 | 301826 | 0.7894 | 0.9914 | 0.5048
CC(C)n1c(/C=C/C(O)CC(O)CC(=O)O)c(-c2ccc(F)cc2)c2ccccc21 (stereo not shown) [Fluvastatin Sodium] | 6 | 0.05005 |  | 0.05448 | 0.8994 | 344916 | 335899 | 339204 | 0.5553 | 0.5553 | 1.3017 | 5.01 |  |  |  |  |  |  |  | 
COC(=O)C1=C(C)NC(C)=C(C(=O)OC(C)C)C1c1cccc2nonc12 (stereo not shown) [Isradipine (Dynacirc), Isradipine] | 6 | 0.03922 |  | 0.001355 | 0.04959 | 19176 | 18431 | 18561 | 0.6155 | 0.6155 | 0.6762 | 3.92 |  |  |  |  |  |  |  | 
O=C(/C=C\n1cnc(-c2cc(C(F)(F)F)cc(C(F)(F)F)c2)n1)NNc1cnccn1 [KPT-330] | 3.73 | 0.005454 |  | 0.05859 | 1.022 | 378225 | 381493 | 389989 | 0.581 | 0.581 | 0.7102 | 0.545 |  |  |  |  |  |  |  | 
Cl.Cl.Cl.O[C@@H](COc1cccc2ncccc12)CN1CCN([C@@H]2c3ccccc3[C@@H]3[C@H](c4ccccc42)C3(F)F)CC1 [LY335979 (Zosuquidar 3HCL), Zosuquidar 3HCL] | 3 | 0.008621 | 0.008621 | 0.08231 | 0.9362 | 352212 | 351420 | 356783 | 0.5866 | 0.5866 | 0.6203 |  |  |  |  |  |  |  |  | 
CCOC(=O)C1=C(C)NC(C)=C(C(=O)OCC)C1c1ccccc1/C=C/C(=O)OC(C)(C)C [Lacidipine] | 1.49 | 0.0004392 |  | 0.02662 | 0.1601 | 61246 | 59492 | 60310 | 0.86 | 0.86 | 0.9247 | 0.0439 |  |  |  |  |  |  |  | 
CC[C@H](C)C(=O)O[C@H]1C[C@@H](C)C=C2C=C[C@H](C)[C@H](CC[C@@H]3C[C@@H](O)CC(=O)O3)[C@H]21 [Lovastatin] | 9 | 0.0828 |  | 0.08758 | 0.9319 | 351803 | 349914 | 353101 | 0.5479 | 0.5479 | 1.075 | 8.28 |  |  |  |  |  |  |  | 
CCOC(=O)C1=C(C)NC(C)=C(C(=O)OC)C1c1cccc([N+](=O)[O-])c1 (stereo not shown) [Nitrendipine] | 8.56 | 0.07211 |  | 0.0007292 | 0.06915 | 26271 | 26141 | 26096 | 0.8649 | 0.8649 | 0.6545 | 7.21 |  |  |  |  |  |  |  | 
OCCOc1ccc(/C(=C(/CCCl)c2ccccc2)c2ccccc2)cc1 [Ospemifene] | 4 |  |  |  |  |  |  |  |  |  |  |  | 1.57 | 0.1449 | 356755 | 358779 | 352991 | 0.9407 | 0.6863 | 1.203
